Measured values as given in US20190151390A1, “PERILLA EXTRACT COMPOSITION” (INQPHARM GROUP SDN BHD, priority 2016, published 2019).

Test system: HMC-1 cells
Test: Mast cell test: histamine release from IgE/anti-IgE stimulated HMC-1 cells, ELISA of supernatant
Assay type: cell-based
Settings: for Histamine reduction (%): compared to respective vehicle control; for Histamine (ng/ml) mean ± SD (n = 3): HMC-1 cells, supernatant ELISA
Experimental: Mast cell lines, i.e. HMC1 cells (provided by Dr Joseph H. Butterfield; Mayo Clinic, Rochester, Minn., USA), were cultured in Isocove's Modified Dulbecco's Medium (IMDM) containing 10% Fetal Bovine Seum (FBS), 2 mM L-glutamine, 50 μM 2-mercaptoethanol, 100 U/mL penicillin and 100 μg/mL streptomycin. Cells were maintained at 37° C. in 5% CO2 in a humidified atmosphere. Percentage of living cells was determined by trypan blue staining. A 1:10 dilution with 50 μl cell suspension and 450 μl trypan blue was prepared and the number of living and dead cells was counted in a hemocytometer. 10^6 living cells were transferred into safe-lock Eppendorf tubes. Cell suspensions were centrifuged (200 g, 5 min) and supernatant was discarded. The effect of perilla oil, sesame oil and a combination of perilla oil and sesame oil (1:1 ratio) in the vehicle Kolliphor ELP (polyoxyl-35 hydrogenated castor oil) was determined. The positive control Cromolyn in phosphate buffer saline (PBS), the vehicles PBS and ELP were also tested as controls. After adding 100 μl IgE (100 ng/ml in PBS or ELP) to the cell pellets, cells were incubated for 12 hours over night, at 37° C. Cells were then incubated for 2 hours, at 37° C. with two different concentrations of compounds, i.e. 250 μg/ml and 500 μg/ml. After centrifugation (200 g, 5 min) supernatant was discarded and cell pellet was again incubated for 1 hour, at 37° C. with 100 μl anti-IgE (1 μg/ml in PBS or ELP). For the final incubation time of 6 hours, at 37° C., 300 μl HMC1 media was added. Cells were again centrifuged (200 g, 5 min) and supernatant was collected and stored as 300 μl aliquots at −20° C. for ELISA measurements. Cell pellets were resuspended in 100 μl HMC1 media for determining cell viability. The concentration of histamine in the collected supernatant was determined by ELISA, using a kit obtained from IBL International according to the manufacturer's guidelines. Each sample was measured twice. Due to expected measuring limits, vehicle (PBS, ELP) treated samples were diluted 1:2. Statistical analysis was performed with GraphPad Prism (Version 5.01) software (GraphPad Software Inc., San Diego, Calif., USA) using the unpaired two-tailed Students t test. A P value of less than 0.05 was considered statistically significant.

O=C(O)c1cc(=O)c2c(OCC(O)COc3cccc4oc(C(=O)O)cc(=O)c34)cccc2o1 [Cromolyn]
Histamine reduction (%) compared to averaged histamine release of perilla oil and sesame oil (250 μg/ml): 8.41%
Histamine reduction (%) (250 μg/ml): 57.61%
Histamine reduction (%) compared to averaged histamine release of perilla oil and sesame oil (500 μg/ml): 6.75%
Histamine reduction (%) (500 μg/ml): 55.28%
Histamine (ng/ml) mean ± SD (n = 3) (250 μg/ml): 121.05 ± 0.73 ng/mL
Histamine (ng/ml) mean ± SD (n = 3) (500 μg/ml): 127.70 ± 13.32 ng/mL
Increase of percentage of histamine reduction compared to treatment with individual compounds (range over 250 and 500 μg/ml): 6.8-8.4%
